Laboratory results reported in patent publication US20230183193A1, “4-DIFLUOROMETHYL BENZOYL AMIDES WITH HERBICIDAL ACTION” (BAYER CROPSCIENCE AKTIENGESELLSCHAFT, priority 2017, published 2023).

Assays:
Type in all cases: in vivo
Avena fatua [1] = experiment: Post-emergence herbicidal action, AVEFA; settings: 80 g/ha, Table C
How it was run: (§1)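 Herbicidal effect is rated visually as percent versus untreated plants (100% = dead, 0% = like control) about 3 weeks after spraying. Plants were sown in sandy loam in the greenhouse and sprayed on green parts at the one-leaf stage, 2 to 3 weeks post-sowing.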

Alopecurus myosuroides [2] = experiment: Pre-emergence herbicidal action, ALOMY; settings: dosage 320 g/ha, scored visually after 3 weeks vs untreated controls
How it was run: (§2)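 Percent herbicidal activity rated by eye 3 weeks after pre-emergence soil-surface application, compared with untreated pots. Seeds sat under sandy loam; sprays carried 0.2% wetting agent.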

Alopecurus myosuroides [3] = experiment: Post-emergence herbicidal action, ALOMY; settings: 80 g/ha, Table C
How it was run: as §1

ECHCG = experiment: Post-emergence herbicidal action, ECHCG; settings: 80 g/ha, Table C
How it was run: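 Weed and crop plants grown in sandy loam in the greenhouse, treated at the one-leaf stage 2–3 weeks after sowing. Damage scored visually after about 3 weeks vs untreated controls (0% = control, 100% = dead).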

Stellaria media [4] = experiment: Post-emergence herbicidal action, STEME; settings: 80 g/ha, Table D
How it was run: as §1

Matricaria inodora = experiment: Pre-emergence herbicidal action, MATIN; settings: dosage 320 g/ha, scored visually after 3 weeks vs untreated controls
How it was run: as §2

Stellaria media [5] = experiment: Pre-emergence herbicidal action, STEME; settings: dosage 320 g/ha, scored visually after 3 weeks vs untreated controls
How it was run: as §2

Setaria viridis [6] = experiment: Post-emergence herbicidal action, SETVI; settings: 80 g/ha, Table C
How it was run: as §1

Cyperus serotinus = experiment: Pre-emergence herbicidal action, CYPES; settings: dosage 320 g/ha, scored visually after 3 weeks vs untreated controls
How it was run: as §2

Abutilon theophrasti [7] = experiment: Post-emergence herbicidal action, ABUTH; settings: 80 g/ha, Table D
How it was run: as §1

Avena fatua [8] = experiment: Pre-emergence herbicidal action, AVEFA; settings: dosage 320 g/ha, scored visually after 3 weeks vs untreated controls
How it was run: as §2

Setaria viridis [9] = experiment: Pre-emergence herbicidal action, SETVI; settings: dosage 320 g/ha, scored visually after 3 weeks vs untreated controls
How it was run: as §2

Amaranthus retroflexus [10] = experiment: Post-emergence herbicidal action, AMARE; settings: 80 g/ha, Table D
How it was run: as §1

Viola tricolor [11] = experiment: Pre-emergence herbicidal action, VIOTR; settings: dosage 320 g/ha, scored visually after 3 weeks vs untreated controls
How it was run: as §2

Abutilon theophrasti [12] = experiment: Pre-emergence herbicidal action, ABUTH; settings: dosage 320 g/ha, scored visually after 3 weeks vs untreated controls
How it was run: as §2

Pharbitis purpureum = experiment: Post-emergence herbicidal action, PHBPU; settings: 80 g/ha, Table D
How it was run: as §1

Amaranthus retroflexus [13] = experiment: Pre-emergence herbicidal action, AMARE; settings: dosage 320 g/ha, scored visually after 3 weeks vs untreated controls
How it was run: as §2

Viola tricolor [14] = experiment: Post-emergence herbicidal action, VIOTR; settings: 80 g/ha, Table D
How it was run: as §1

Row | Structure (SMILES) | herbicidal activity AVEFA (Avena fatua [1]) [%] | herbicidal activity ALOMY (Alopecurus myosuroides [2]) [%] | herbicidal activity ALOMY (Alopecurus myosuroides [3]) [%] | Herbicidal activity ECHCG (ECHCG) [%] | Herbicidal activity STEME (Stellaria media [4]) [%] | herbicidal activity MATIN (Matricaria inodora) [%] | Herbicidal activity STEME (Stellaria media [5]) [%] | herbicidal activity SETVI (Setaria viridis [6]) [%] | herbicidal activity CYPES (Cyperus serotinus) [%] | herbicidal activity ABUTH (Abutilon theophrasti [7]) [%] | herbicidal activity AVEFA (Avena fatua [8]) [%] | herbicidal activity SETVI (Setaria viridis [9]) [%] | herbicidal activity AMARE (Amaranthus retroflexus [10]) [%] | herbicidal activity VIOTR (Viola tricolor [11]) [%] | herbicidal activity ABUTH (Abutilon theophrasti [12]) [%] | Herbicidal activity PHBPU (Pharbitis purpureum) [%] | herbicidal activity AMARE (Amaranthus retroflexus [13]) [%] | herbicidal activity VIOTR (Viola tricolor [14]) [%]
1 | CCSc1c(C(F)F)ccc(C(=O)Nc2nnnn2CC)c1Br [Example 2-64] | 100 | 100 | 100 | 100 | 100 | 100 | 100 | 100 | 100 | 100 | 100 | 100 | 100 | 100 | 100 | 100 | 100 | 100
2 | CSc1c(C(F)F)ccc(C(=O)Nc2nnc(C)o2)c1Cl [Example 7-47] | 100 | 90 | 80 | 100 | 100 | 100 | 90 | 100 | 80 | 90 | 90 | 100 | 90 | 100 | 100 | 90 | 100 | 100
3 | CCn1nnnc1NC(=O)c1ccc(C(F)F)c(SC)c1Cl [Example 2-49] | 100 | 100 | 100 | 100 | 100 | 100 | 90 | 100 | 90 | 100 | 100 | 100 | 100 | 100 | 100 | 100 | 100 | 100
4 | CCn1nnnc1NC(=O)c1ccc(C(F)F)c(S(=O)(=O)CC)c1C [Example 2-6] | 100 | 100 | 80 | 90 | 100 | 100 | 100 | 90 | 100 | 100 | 100 | 100 | 90 | 100 | 100 | 100 | 100 | 100
5 | CCSc1c(C(F)F)ccc(C(=O)Nc2nnc(C)o2)c1CC [Example 7-14] | 100 | 100 | 90 | 90 | 100 | 90 | 100 | 90 | 100 | 100 | 100 | 100 | 100 | 100 | 100 | 90 | 100 | 100
6 | CC[S+]([O-])c1c(C(F)F)ccc(C(=O)Nc2nnnn2C)c1Br (stereo not drawn) [Example 1-65] | 100 | 100 | 100 | 100 | 100 | 100 | 100 | 100 | 90 | 100 | 100 | 100 | 100 | 100 | 100 | 100 | 100 | 100
7 | CCn1nnnc1NC(=O)c1ccc(C(F)F)c(S(=O)(=O)CC)c1I [Example 2-78] | 90 | 100 | 80 | 90 | 100 | 100 | 100 | 90 | 100 | 80 | 100 | 100 | 100 | 100 | 100 | 90 | 100 | 90
8 | CCS(=O)(=O)c1c(C(F)F)ccc(C(=O)Nc2nnnn2C)c1C1CC1 [Example 1-30] | 100 | 100 | 100 | 100 | 100 | 100 | 100 | 100 | 90 | 100 | 100 | 100 | 90 | 100 | 100 | 90 | 100 | 100
9 | CCc1c(C(=O)Nc2nnnn2CC)ccc(C(F)F)c1S(=O)(=O)CC [Example 2-18] | 100 | 100 | 80 | 90 | 100 | 100 | 100 | 90 | 90 | 100 | 100 | 100 | 100 | 100 | 100 | 100 | 100 | 100
10 | CCn1nnnc1NC(=O)c1ccc(C(F)F)c([S+](C)[O-])c1F (stereo not drawn) [Example 2-38] | 90 | 100 | 90 | 100 | 100 | 100 | 100 | 100 | 100 | 90 | 100 | 100 | 100 | 100 | 100 | 90 | 100 | 100
11 | CCc1c(C(=O)Nc2nnnn2C)ccc(C(F)F)c1S(C)(=O)=O [Example 1-15] | 100 | 100 | 90 | 90 | 100 | 100 | 100 | 80 | 100 | 90 | 100 | 100 | 100 | 100 | 100 | 90 | 100 | 100
